“And” between values parts separate entries of the source, which are not always exact repeats. Equal entries are not always repeated. Where two headings read alike, the source gives them in different places.
Key:
[1] = test system: erythroid progenitor cells (EPCs); test: Fetal hemoglobin (HbF) ELISA in day 7 erythroid progenitor cells; assay type: cell-based, human; details: Homo sapiens, Erythroid progenitor cell, HbF ELISA, day 7 EPCs, 5 days; read-out: EPC ELISA (pEC50 category) (converted);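 note: for fetal hemoglobin induction normalized to vehicle-treated cells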
Procedure, shortened: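 CD34+-derived EPCs, 1,000 cells/well, rhEPO 3 U/mL; Compound A 22-pt series, […]; 5 d, 37° C, 5% CO2. Freeze-thaw lysis, anti-HbF capture + HRP anti-HbF, TMB, OD450. Normalized to DMSO wells.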

DNMT1 = DNMT1 (Homo sapiens, UniProt P26358); test: DNMT1 biochemical activity, breaklight assay and/or SPA assay
Chain of DNMT1 (P26358 whole entry, looked up): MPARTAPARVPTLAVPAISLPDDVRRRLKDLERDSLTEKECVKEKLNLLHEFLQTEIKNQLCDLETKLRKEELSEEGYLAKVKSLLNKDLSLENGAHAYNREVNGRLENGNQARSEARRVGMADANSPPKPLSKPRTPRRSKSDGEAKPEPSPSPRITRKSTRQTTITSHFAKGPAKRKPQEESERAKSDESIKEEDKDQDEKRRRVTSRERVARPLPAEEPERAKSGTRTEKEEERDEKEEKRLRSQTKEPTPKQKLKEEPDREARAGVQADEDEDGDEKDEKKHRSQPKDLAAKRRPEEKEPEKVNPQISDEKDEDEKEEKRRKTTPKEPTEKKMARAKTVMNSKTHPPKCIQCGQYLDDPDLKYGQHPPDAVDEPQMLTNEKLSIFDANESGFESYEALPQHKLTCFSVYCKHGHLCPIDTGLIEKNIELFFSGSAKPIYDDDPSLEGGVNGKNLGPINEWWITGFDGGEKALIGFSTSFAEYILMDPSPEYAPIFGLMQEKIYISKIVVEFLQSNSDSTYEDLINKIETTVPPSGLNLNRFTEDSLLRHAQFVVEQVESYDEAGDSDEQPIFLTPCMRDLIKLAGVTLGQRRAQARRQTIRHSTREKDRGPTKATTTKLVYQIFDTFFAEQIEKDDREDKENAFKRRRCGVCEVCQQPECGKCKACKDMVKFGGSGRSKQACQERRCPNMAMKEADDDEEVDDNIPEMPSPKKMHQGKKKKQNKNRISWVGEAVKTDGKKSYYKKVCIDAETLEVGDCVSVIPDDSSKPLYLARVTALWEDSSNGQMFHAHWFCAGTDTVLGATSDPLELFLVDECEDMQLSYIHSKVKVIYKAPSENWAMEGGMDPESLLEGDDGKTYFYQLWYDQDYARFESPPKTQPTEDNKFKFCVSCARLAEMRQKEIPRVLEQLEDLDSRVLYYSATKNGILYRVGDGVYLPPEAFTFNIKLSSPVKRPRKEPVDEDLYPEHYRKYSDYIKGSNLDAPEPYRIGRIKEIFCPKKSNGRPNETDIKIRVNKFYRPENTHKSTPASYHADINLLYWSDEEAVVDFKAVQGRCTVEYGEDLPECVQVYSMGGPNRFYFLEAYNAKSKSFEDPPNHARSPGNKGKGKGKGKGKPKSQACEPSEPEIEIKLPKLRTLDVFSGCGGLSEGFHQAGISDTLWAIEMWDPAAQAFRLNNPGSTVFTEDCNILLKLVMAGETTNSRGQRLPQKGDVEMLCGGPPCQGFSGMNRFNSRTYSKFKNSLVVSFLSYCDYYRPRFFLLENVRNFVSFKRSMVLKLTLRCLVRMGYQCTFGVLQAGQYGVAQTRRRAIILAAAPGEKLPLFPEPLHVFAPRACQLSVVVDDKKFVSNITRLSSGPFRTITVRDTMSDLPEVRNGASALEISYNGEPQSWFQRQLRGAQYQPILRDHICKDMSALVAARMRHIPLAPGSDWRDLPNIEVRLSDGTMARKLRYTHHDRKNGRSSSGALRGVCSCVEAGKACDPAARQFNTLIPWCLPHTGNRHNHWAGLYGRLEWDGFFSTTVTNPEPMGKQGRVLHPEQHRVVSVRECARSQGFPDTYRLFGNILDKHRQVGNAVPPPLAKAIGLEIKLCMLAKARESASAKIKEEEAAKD

[2] = binned activity in either the breaklight or the SPA assay
[3] = binned activity in either the breaklight or the SPA assay, read-out: DNMT1 BioChemical (pIC50 category) (converted)

Structure (SMILES)	EC50 [1]	DNMT1 BioChemical (pIC50 category) (DNMT1; [2])	IC50 (DNMT1; [3])	IC50 (DNMT1; breaklight assay and/or SPA assay, repeated experimental runs, read-out: average pIC50 against DNMT1 (converted))
CCc1c(C#N)c(SC(C(N)=O)c2ccccc2)nc(N2CCC(NC(=O)[C@@H](N)CO)CC2)c1C#N (some centres unmarked) [Example 399]	1 to 31.6 µM	D (Category D: ≥6.5)	–	–
CCc1c(C#N)c(SC(C(N)=O)c2ccccc2)nc(N2CCO[C@@H](CNCC(C)(C)C)C2)c1C#N (stereo partly drawn) [Example 567, 2-((3,5-dicyano-4-ethyl-6-((S)-2-((neopentylamino)methyl)morpholino)pyridin-2-yl)thio)-2-phenylacetamide]	< 0.316 µM	D (Category D: ≥6.5)	–	–
CCc1c(C#N)c(SC(C(N)=O)c2ccccc2)nc(N2CCC(CN3CCN(C)CC3)CC2)c1C#N (centres unmarked) [Example 469, 2-((3,5-dicyano-4-ethyl-6-(4-((4-methylpiperazin-1-yl)methyl)piperidin-1-yl)pyridin-2-yl)thio)-2-phenylacetamide]	< 0.316 µM	D (Category D: ≥6.5)	–	–
CCc1c(C#N)c(SC(C(N)=O)c2ccc(F)cc2)nc(N2CC[C@@H](N(C)C)C2)c1C#N (stereo partly drawn) [Example 530, 2-((3,5-dicyano-6-((R)-3-(dimethylamino)pyrrolidin-1-yl)-4-ethylpyridin-2-yl)thio)-2-(4-fluorophenyl)acetamide]	1 to 31.6 µM	D (Category D: ≥6.5)	–	–
CCc1c(C#N)c(SCc2ccc(N(C)S(C)(=O)=O)cc2)nc(N2CCCN(C)CC2)c1C#N [Example 355, N-(4-(((3,5-Dicyano-4-ethyl-6-(4-methyl-1,4-diazepan-1-yl)pyridin-2-yl)thio)methyl)phenyl)-N-methylmethanesulfonamide]	< 0.316 µM	D (Category D: ≥6.5)	–	–
CN(CCOC(N)=O)c1nc(SC(C(N)=O)c2ccccc2)c(C#N)c(C2CC2)c1C#N (centres unmarked) [Example 397, 2-((6-((2-Amino-2-oxo-1-phenylethyl)thio-3,5-dicyano-4-cyclopropylpyridin-2-yl)methyl)amino)ethyl carbamate]	1 to 31.6 µM	–	0.316 to 1 µM	–
CCc1c(C#N)c(SC(C(N)=O)c2ccccc2)nc(N2CCC(NC(=O)CO)CC2)c1C#N (centres unmarked) [Example 286, N-(1-(6-((2-Amino-2-oxo-1-phenylethyl)thio)-3,5-dicyano-4-ethylpyridin-2-yl)piperidin-4-yl)-2-hydroxyacetamide]	1 to 31.6 µM	D (Category D: ≥6.5)	–	0.316 to 1 µM and 0.316 µM
CN(CC(N)=O)c1nc(SC(C(N)=O)c2ccccc2)c(C#N)c(C2CC2)c1C#N (centres unmarked) [Example 396, 2-((6-((2-Amino-2-oxoethyl)(methyl)amino)-3,5-dicyano-4-cyclopropylpyridin-2-yl)thio)-2-phenylacetamide]	1 to 31.6 µM	–	0.316 to 1 µM	–
CCc1c(C#N)c(SC(C(N)=O)c2ccccc2)nc(N2CCC(NC(=O)OC(C)(C)C)CC2)c1C#N (centres unmarked) [Example 328, tert-Butyl (1-(6-((2-amino-2-oxo-1-phenylethyl)thio)-3,5-dicyano-4-ethylpyridin-2-yl)piperidin-4-yl)carbamate]	0.316 to 1 µM	–	1 to 31.6 µM	–
CCc1c(C#N)c(SC(C(N)=O)c2ccc(C(F)(F)F)cc2)nc(N2CCC(N)CC2)c1C#N (centres unmarked) [Example 410, 2-((6-(4-aminopiperidin-1-yl)-3,5-dicyano-4-ethylpyridin-2-yl)thio)-2-(4-(trifluoromethyl)phenyl)acetamide]	0.316 to 1 µM	D (Category D: ≥6.5)	–	–
CCc1c(C#N)c(SC(C(N)=O)c2ccccc2)nc(N2CCC(NC(=O)C3(N)COC3)CC2)c1C#N (centres unmarked) [Example 186, 3-Amino-N-(1-(6-((2-amino-2-oxo-1-phenylethyl)thio)-3,5-dicyano-4-ethylpyridin-2-yl)piperidin-4-yl)oxetane-3-carboxamide]	1 to 31.6 µM	D (Category D: ≥6.5)	–	–
CCCOc1c(C#N)c(SC(C(N)=O)c2ccccc2)nc(N2CCCN(CCO)CC2)c1C#N (centres unmarked) [Example 213, 2-((3,5-Dicyano-6-(4-(2-hydroxyethyl)-1,4-diazepan-1-yl)-4-propoxypyridin-2-yl)thio)-2-phenylacetamide]	1 to 31.6 µM	–	0.316 to 1 µM	–
CCc1c(C#N)c(SC(C(N)=O)c2ccccc2)nc(N(C)CCN2CCNCC2)c1C#N (centres unmarked) [Example 167, 2-((3,5-Dicyano-4-ethyl-6-(methyl(2-(piperazin-1-yl)ethyl)amino)pyridin-2-yl)thio)-2-phenylacetamide]	< 0.316 µM	D (Category D: ≥6.5)	–	–
CCc1c(C#N)c(SCc2ccc(CNC(=O)CO)cc2)nc(N2CCC(O)C2)c1C#N (centres unmarked) [Example 367]	1 to 31.6 µM	–	0.316 to 1 µM	–
CCc1c(C#N)c(SC(C(N)=O)c2ccccc2)nc(N2CC(OC(=O)C(N)C(C)C)C2)c1C#N (stereo in doubt) [Example 333, (2R)-1-(6-((2-Amino-2-oxo-1-phenylethyl)thio)-3,5-dicyano-4-ethylpyridin-2-yl)azetidin-3-yl 2-amino-3-methylbutanoate]	1 to 31.6 µM	D (Category D: ≥6.5)	–	–
CCc1c(C#N)c(SC(C(N)=O)c2cc(C)ccn2)nc(N2CCCN(C)CC2)c1C#N (centres unmarked) [Example 208]	0.316 to 1 µM	–	0.316 to 1 µM	–
CCc1c(C#N)c(SC(C(N)=O)c2ccccc2)nc(N(C)CCNC)c1C#N (centres unmarked) [Example 470, 2-((3,5-dicyano-4-ethyl-6-(methyl(2-(methylamino)ethyl)amino)pyridin-2-yl)thio)-2-phenylacetamide]	< 0.316 µM	D (Category D: ≥6.5)	–	–
CCc1c(C#N)c(SC(C(N)=O)c2ccccc2)nc(N2CCC(NCC(C)(C)O)CC2)c1C#N (centres unmarked) [Example 447, 2-((3,5-dicyano-4-ethyl-6-(4-((2-hydroxy-2-methylpropyl)amino)piperidin-1-yl)pyridin-2-yl)thio)-2-phenylacetamide]	< 0.316 µM	D (Category D: ≥6.5)	–	–
CCc1c(C#N)c(SCc2ccc(-n3ccnc3)cc2)nc(N2CCCN(C)CC2)c1C#N [Example 294, 2-((4-(1H-Imidazol-1-yl)benzyl)thio)-4-ethyl-6-(4-methyl-1,4-diazepan-1-yl)pyridine-3,5-dicarbonitrile]	> 31.6 µM	–	0.316 to 1 µM	–
CCc1c(C#N)c(SC(C(N)=O)c2ccc(F)cc2)nc(N2CCC(N3CC(OC)C3)CC2)c1C#N (centres unmarked) [Example 698, 2-((3,5-dicyano-4-ethyl-6-(4-(3-methoxyazetidin-1-yl)piperidin-1-yl)pyridin-2-yl)thio)-2-(4-fluorophenyl)acetamide]	< 0.316 µM	D (Category D: ≥6.5)	–	–
CCc1c(C#N)c(SC(C(N)=O)c2ccc(S(=O)(=O)NC)cc2)nc(N(C)C)c1C#N (centres unmarked) [Example 402]	1 to 31.6 µM	D (Category D: ≥6.5)	–	–
CCc1c(C#N)c(SC(C(N)=O)c2ccccc2)nc(N2CCC(N3CCOCC3)CC2)c1C#N (centres unmarked) [Example 503, 2-((3,5-dicyano-4-ethyl-6-(4-morpholinopiperidin-1-yl)pyridin-2-yl)thio)-2-phenylacetamide]	0.316 to 1 µM	D (Category D: ≥6.5)	–	–
CCc1c(C#N)c(SCc2ccc(N(C)S(=O)(=O)CF)cc2)nc(N2CCCN(C)CC2)c1C#N [Example 595, N-(4-(((3,5-dicyano-4-ethyl-6-(4-methyl-1,4-diazepan-1-yl)pyridin-2-yl)thio)methyl)phenyl)-1-fluoro-N-methylmethanesulfonamide]	< 0.316 µM	D (Category D: ≥6.5)	–	–

— patent US10975056B2 (GlaxoSmithKline Intellectual Property Development Limited, priority 2016, dated 2021)
